The assay relates to SMN protein. The assay can be described thus: cellular SMN ELISA (SMN protein elevation). Type of assay: cell-based. The note with it: ELISA condition 2: compound concentration 100 pM-10 uM, myoblast cell line from SMNdelta7 mouse model, 24 hours treatment; for SMN activity Fold: fold activation over DMSO control. In a few lines:
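Readout is fold SMN elevation versus DMSO plus EC50, measured by anti-SMN capture ELISA with 450 nm absorbance. Lysates came from a myoblast line of the SMNdelta7 mouse model after 24 h compound exposure, with dose ranges of 20 nM–10 μM (condition 1) or 100 pM–10 μM (condition 2).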
On the technique in general: In an ELISA, binding on a coated surface is turned into a signal by an enzyme label.

One may read the EC50 as the concentration at which the effect is half-maximal. A low value points to an effect from little substance. As to `COc1ccc(-c2ccc(-c3ccc(N(C)C4CC(C)(C)NC(C)(C)C4)nn3)c(O)c2)cn1` [Example 41-4, 5-(6-methoxypyridin-3-yl)-2-(6-(methyl(2,2,6,6-tetramethylpiperidin-4-yl)amino)pyridazin-3-yl)phenol], the EC50 amounted to 80 nM and the “SMN activity Fold” value stood at 3.29 Fold.

`CN(c1ccc(-c2ccc(-c3cnc(O)c(C(F)(F)F)c3)cc2O)nn1)C1CC(C)(C)NC(C)(C)C1` [Example 41-5, 5-(3-hydroxy-4-(6-(methyl(2,2,6,6-tetramethylpiperidin-4-yl)amino)pyridazin-3-yl)phenyl)-3-(trifluoromethyl)pyridin-2-ol]: a half-maximal effect (EC50) was put at 175 nM and the “SMN activity Fold” value turned out to be 2.88 Fold.

`CN(c1ccc(-c2ccc(-c3ccc(=O)n(C)c3)cc2O)nn1)C1CC(C)(C)NC(C)(C)C1` [Example 41-6, 5-(3-hydroxy-4-(6-(methyl(2,2,6,6-tetramethylpiperidin-4-yl)amino)pyridazin-3-yl)phenyl)-1-methylpyridin-2(1H)-one]: it took 10 nM to reach a half-maximal effect (EC50) and the “SMN activity Fold” value is recorded as 2.67 Fold.

`CN(c1ccc(-c2ccc(-c3ccn(C)c(=O)c3)cc2O)nn1)C1CC(C)(C)NC(C)(C)C1` [Example 41-7, 4-(3-hydroxy-4-(6-(methyl(2,2,6,6-tetramethylpiperidin-4-yl)amino)pyridazin-3-yl)phenyl)-1-methylpyridin-2(1H)-one]: it took 7 nM to reach a half-maximal effect (EC50) and the “SMN activity Fold” value was 2.87 Fold.

With `COc1cc(-c2ccc(-c3ccc(N(C)C4CC(C)(C)NC(C)(C)C4)nn3)c(O)c2)ccn1` [Example 41-8, 5-(2-methoxypyridin-4-yl)-2-(6-(methyl(2,2,6,6-tetramethylpiperidin-4-yl)amino)pyridazin-3-yl)phenol], the EC50 is 62 nM and the “SMN activity Fold” value is listed as 3.18 Fold.

Regarding `CC1(C)CC(Oc2ccc(-c3ccc(-c4ccnc(O)c4)cc3O)nn2)CC(C)(C)N1` [Example 41-9, 4-(3-hydroxy-4-(6-((2,2,6,6-tetramethylpiperidin-4-yl)oxy)pyridazin-3-yl)phenyl)pyridin-2-ol], the response was half-maximal at 72 nM (EC50) and the “SMN activity Fold” value is listed as 4.2 Fold.

As to `CN(C)c1ccc(-c2ccc(-c3ccc(N(C)C4CC(C)(C)NC(C)(C)C4)nn3)c(O)c2)cn1` [Example 41-10, 5-(6-(dimethylamino)pyridin-3-yl)-2-(6-(methyl(2,2,6,6-tetramethylpiperidin-4-yl)amino)pyridazin-3-yl)phenol], the EC50 was determined as 59 nM and the “SMN activity Fold” value worked out at 2.80 Fold.

On to `Cn1ccc(-c2ccc(-c3ccc(OC4CC(C)(C)NC(C)(C)C4)nn3)c(O)c2)cc1=O` [Example 41-11, 4-(3-hydroxy-4-(6-((2,2,6,6-tetramethylpiperidin-4-yl)oxy)pyridazin-3-yl)phenyl)-1-methylpyridin-2(1H)-one], for which it took 12 nM to reach a half-maximal effect (EC50) and the “SMN activity Fold” value is recorded as 2.78 Fold.

On to `CN(c1ccc(-c2ccc(-c3cncnc3)cc2O)nn1)C1CC(C)(C)NC(C)(C)C1` [Example 41-12, 2-(6-(methyl(2,2,6,6-tetramethylpiperidin-4-yl)amino)pyridazin-3-yl)-5-(pyrimidin-5-yl)phenol], for which the 50% effective concentration (EC50) amounted to 103 nM and the “SMN activity Fold” value was determined as 2.92 Fold.

For `CN(c1ccc(-c2ccc(-c3cncc(O)c3)cc2O)nn1)C1CC(C)(C)NC(C)(C)C1` [Example 41-13, 5-(3-hydroxy-4-(6-(methyl(2,2,6,6-tetramethylpiperidin-4-yl)amino)pyridazin-3-yl)phenyl)pyridin-3-ol], the EC50 was 308 nM and the “SMN activity Fold” value is reported as 3.50 Fold.

For `CN(c1ccc(-c2ccc(-c3ccn(C4CC4)c(=O)c3)cc2O)nn1)C1CC(C)(C)NC(C)(C)C1` [Example 41-14, 1-cyclopropyl-4-(3-hydroxy-4-(6-(methyl(2,2,6,6-tetramethylpiperidin-4-yl)amino)pyridazin-3-yl)phenyl)pyridin-2(1H)-one], the midpoint of the response, the EC50, lay at 84 nM and the “SMN activity Fold” value is on record as 3.21 Fold.

Turning to `CN(c1ccc(-c2ccc(C3=CCNCC3)cc2O)nn1)C1CC(C)(C)NC(C)(C)C1` [Example 41-15, 2-(6-(methyl(2,2,6,6-tetramethylpiperidin-4-yl)amino)pyridazin-3-yl)-5-(1,2,3,6-tetrahydropyridin-4-yl)phenol], the EC50 was found to be 145 nM and the “SMN activity Fold” value is reported as 2.56 Fold.

With `CN(c1ccc(-c2ccc(C3=CCCC3)cc2O)nn1)C1CC(C)(C)NC(C)(C)C1` [Example 41-16, 5-(cyclopent-1-en-1-yl)-2-(6-(methyl(2,2,6,6-tetramethylpiperidin-4-yl)amino)pyridazin-3-yl)phenol], the concentration for a half-maximal effect (EC50) stood at 62 nM and the “SMN activity Fold” value is listed as 2.30 Fold.

Take `CN(c1ccc(-c2ccc(C3=CCOCC3)cc2O)nn1)C1CC(C)(C)NC(C)(C)C1` [Example 41-17, 5-(3,6-dihydro-2H-pyran-4-yl)-2-(6-(methyl(2,2,6,6-tetramethylpiperidin-4-yl)amino)pyridazin-3-yl)phenol]: it took 170 nM to reach a half-maximal effect (EC50) and the “SMN activity Fold” value is recorded as 2.88 Fold.

Turning to `CN(c1ccc(-c2ccc(-c3ccn4cncc4c3)cc2O)nn1)C1CC(C)(C)NC(C)(C)C1` [Example 41-18, 5-(imidazo[1,5-a]pyridin-7-yl)-2-(6-(methyl(2,2,6,6-tetramethylpiperidin-4-yl)amino)pyridazin-3-yl)phenol], a half-maximal response (EC50) required 17 nM and the “SMN activity Fold” value worked out at 2.44 Fold.

As for `CN(c1ccc(-c2ccc(-c3ccn4ccnc4c3)cc2O)nn1)C1CC(C)(C)NC(C)(C)C1` [Example 41-19, 5-(imidazo[1,2-a]pyridin-7-yl)-2-(6-(methyl(2,2,6,6-tetramethylpiperidin-4-yl)amino)pyridazin-3-yl)phenol], the EC50 came out at 17 nM and the “SMN activity Fold” value is 2.62 Fold.

For `Cc1cc(-c2ccc(-c3ccc(N(C)C4CC(C)(C)NC(C)(C)C4)nn3)c(O)c2)ccn1` [Example 41-20, 2-(6-(methyl(2,2,6,6-tetramethylpiperidin-4-yl)amino)pyridazin-3-yl)-5-(2-methylpyridin-4-yl)phenol], the midpoint of the response, the EC50, lay at 32 nM and the “SMN activity Fold” value was determined as 2.63 Fold.

Regarding `CN(c1ccc(-c2ccc(-c3ncc[nH]3)cc2O)nn1)C1CC(C)(C)NC(C)(C)C1` [Example 42-1, 5-(1H-imidazol-2-yl)-2-(6-(methyl(2,2,6,6-tetramethylpiperidin-4-yl)amino)pyridazin-3-yl)phenol], the EC50 is 117 nM and the “SMN activity Fold” value amounted to 2.28 Fold.

Turning to `CN(c1ccc(-c2ccc(-c3c[nH]cn3)cc2O)nn1)C1CC(C)(C)NC(C)(C)C1` [Example 42-2, 5-(1H-imidazol-4-yl)-2-(6-(methyl(2,2,6,6-tetramethylpiperidin-4-yl)amino)pyridazin-3-yl)phenol], the concentration for a half-maximal effect (EC50) came out at 26 nM and the “SMN activity Fold” value was 2.06 Fold.

In the case of `CN(c1ccc(-c2ccc(-c3cnc4cnccn34)cc2O)nn1)C1CC(C)(C)NC(C)(C)C1` [Example 42-3, 5-(imidazo[1,2-a]pyrazin-3-yl)-2-(6-(methyl(2,2,6,6-tetramethylpiperidin-4-yl)amino)pyridazin-3-yl)phenol], a half-maximal response (EC50) required 99 nM and the “SMN activity Fold” value was determined as 2.92 Fold.

For `CN(c1ccc(-c2ccc(-c3cnc4n3CCNC4)cc2O)nn1)C1CC(C)(C)NC(C)(C)C1` [Example 42-4, 2-(6-(methyl(2,2,6,6-tetramethylpiperidin-4-yl)amino)pyridazin-3-yl)-5-(5,6,7,8-tetrahydroimidazo[1,2-a]pyrazin-3-yl)phenol], the EC50 is 853 nM and the “SMN activity Fold” value was 2.41 Fold.

Regarding `Cc1c[nH]c(-c2ccc(-c3ccc(N(C)C4CC(C)(C)NC(C)(C)C4)nn3)c(O)c2)n1` [Example 42-5, 2-(6-(methyl(2,2,6,6-tetramethylpiperidin-4-yl)amino)pyridazin-3-yl)-5-(4-methyl-1H-imidazol-2-yl)phenol], the concentration giving a half-maximal response (EC50) turned out to be 202 nM and the “SMN activity Fold” value is listed as 3.22 Fold.

Take `CN(c1ccc(-c2ccc(-c3cn(C)cn3)cc2O)nn1)C1CC(C)(C)NC(C)(C)C1` [Example 42-6, 2-(6-(methyl(2,2,6,6-tetramethylpiperidin-4-yl)amino)pyridazin-3-yl)-5-(1-methyl-1H-imidazol-4-yl)phenol]: the EC50 is 66 nM and the “SMN activity Fold” value is 2.49 Fold.

On to `CN(c1ccc(-c2ccc(-c3cncn3C)cc2O)nn1)C1CC(C)(C)NC(C)(C)C1` [Example 42-7, 2-(6-(methyl(2,2,6,6-tetramethylpiperidin-4-yl)amino)pyridazin-3-yl)-5-(1-methyl-1H-imidazol-5-yl)phenol], for which the EC50 turned out to be 55 nM and the “SMN activity Fold” value is on record as 2.51 Fold.

For the molecule `CN(c1ccc(-c2ccc(-c3nc([N+](=O)[O-])c[nH]3)cc2O)nn1)C1CC(C)(C)NC(C)(C)C1` [Example 42-8, 2-(6-(methyl(2,2,6,6-tetramethylpiperidin-4-yl)amino)pyridazin-3-yl)-5-(4-nitro-1H-imidazol-2-yl)phenol], the EC50 stood at 756 nM and the “SMN activity Fold” value is 2.82 Fold.

Consider `Cc1nc(-c2ccc(-c3ccc(N(C)C4CC(C)(C)NC(C)(C)C4)nn3)c(O)c2)c[nH]1` [Example 42-9, 2-(6-(methyl(2,2,6,6-tetramethylpiperidin-4-yl)amino)pyridazin-3-yl)-5-(2-methyl-1H-imidazol-4-yl)phenol], for which the concentration giving a half-maximal response (EC50) is 15 nM and the “SMN activity Fold” value is 2.85 Fold.

For the molecule `Cc1nc(-c2ccc(-c3ccc(N(C)C4CC(C)(C)NC(C)(C)C4)nn3)c(O)c2)cn1C` [Example 42-10, 5-(1,2-dimethyl-1H-imidazol-4-yl)-2-(6-(methyl(2,2,6,6-tetramethylpiperidin-4-yl)amino)pyridazin-3-yl)phenol], the concentration giving a half-maximal response (EC50) is 57 nM and the “SMN activity Fold” value was determined as 3.10 Fold.

The values above are taken from patent US10195196B2, “1,4-disubstituted pyridazine analogs there of and methods for treating SMN-deficiency-related conditions” (NOVARTIS AG, priority 2012, dated 2019).
